Key:
[1] = Test Example 3: odor of amino acid aqueous solutions before and after irradiation of ultraviolet at a peak wavelength of 222 nm (sensory evaluation); format: physicochemical; conditions: for Comparison with smells in Test example 1: odor after 222 nm UV irradiation of the solution compared with odor of UV-irradiated human hand, sensory evaluation by six assessors; for Odor before irradiation: 3 mL aqueous solution of amino acid in petri dish, before ultraviolet irradiation
Description: Looking at amino acids that form the proteins in the epidermis, then changes in the odor before and after irradiation of ultraviolet at a peak wavelength of 222 nm with respect to the following eighteen types of amino acids are examined More specifically, a 3 mL aqueous solution of each type of amino acid was put in a φ40 petri dish, and using the same light source as that of the ultraviolet irradiation apparatus 1, irradiated with ultraviolet with an irradiance of 3.8 mW/cm^2 for an irradiation period of 30 seconds. The petri dish and the light source were spaced apart by 8 cm. The eighteen types of amino acids were: Cystine, glutamic acid, leucine, arginine, serine, threonine, aspartic acid, proline, glycine, valine, alanine, phenylalanine, isoleucine, tyrosine, lysine, histidine, methionine, and tryptophan. These eighteen amino acids are all known as the substances that form proteins contained in the epidermis.
The comparison with the odor in Test Example 1 was made by sensory evaluation performed by the six assessors M1, M2, M3, M4, M5, and M6.

[2] = test system: region irradiated with ultraviolet (palm of the right hand); test: Test Example 4: application of amino acid aqueous solution to palm irradiated with 222 nm ultraviolet, assessment of change in smell; format: in vivo, human; conditions: 1 mM aqueous solution sprayed and rubbed in on palm irradiated with 222 nm UV, 3.8 mW/cm^2, 30 seconds, smell of burning hair before application, Assessor M1, other five gave the same results
Source text: Similarly to the method of Test Example 1, using the ultraviolet irradiation apparatus 1 shown in FIG. 1, the palm of the right hand of each of six assessors M1, M2, M3, M4, M5, and M6 was irradiated with ultraviolet, with a peak wavelength at 222 nm and an irradiance of 3.8 mW/cm^2 for an irradiation period of 30 seconds.
After that, each aqueous solution of the eighteen types of amino acids used in Test Example 3 (cystine, glutamic acid, leucine, arginine, serine, threonine, aspartic acid, proline, glycine, valine, alanine, phenylalanine, isoleucine, tyrosine, lysine, histidine, methionine, and tryptophan) was applied to the region irradiated with ultraviolet (molar concentration: 1 mM). More specifically, each aqueous solution was sprayed and rubbed in with the palm of the hand. This was followed by an assessment of any changes in the smell before and after application of each aqueous solution.

SMILES | Comparison with smells in Test example 1 [1] | Odor before irradiation [1] | Smell after application of amino acid solution [2] | other results
C[C@H](N)C(=O)O [Alanine, alanine] | Different | – | – | –
N=C(N)NCCC[C@H](N)C(=O)O [Arginine, arginine] | Different | – | Smell disappeared | Smell after application of amino acid solution ([2]; listed as arginine): no odor was detected
N[C@@H](CC(=O)O)C(=O)O [Aspartic acid, aspartic acid] | Different | No smell | Smell disappeared | Smell after application of amino acid solution ([2]; listed as aspartic acid): no odor was detected
N[C@@H](CSSC[C@H](N)C(=O)O)C(=O)O [Cystine] | Different | No smell | – | –
N[C@@H](CCC(=O)O)C(=O)O [Glutamic acid, glutamic acid] | Different | Slight smell | Smell disappeared | Smell after application of amino acid solution ([2]; listed as glutamic acid): no odor was detected
NCC(=O)O [Glycine, glycine] | Different | No smell | Smell disappeared | Smell after application of amino acid solution ([2]; listed as glycine): no odor was detected
NCCCC[C@H](N)C(=O)O [Lysine, lysine] | Different | – | – | –

Continued, in another order:

Comparison with smells in Test example 1 [1] | Odor before irradiation [1] | SMILES | Smell after application of amino acid solution [2] | other results
Different | No smell | N[C@@H](Cc1c[nH]cn1)C(=O)O [Histidine, histidine] | – | –
substantially the same | – | CC[C@H](C)[C@H](N)C(=O)O [Isoleucine, isoleucine] | Smell disappeared | Smell after application of amino acid solution ([2]; listed as isoleucine): no odor was detected
substantially the same | – | CC(C)C[C@H](N)C(=O)O [Leucine, leucine] | Smell disappeared | Smell after application of amino acid solution ([2]; listed as leucine): no odor was detected
substantially the same | – | CSCC[C@H](N)C(=O)O [Methionine, methionine] | Smell disappeared | Smell after application of amino acid solution ([2]; listed as methionine): no odor was detected
Different | – | N[C@@H](Cc1ccccc1)C(=O)O [Phenylalanine, phenylalanine] | – | –
Different | No smell | O=C(O)[C@@H]1CCCN1 [Proline, proline] | Smell disappeared | Odor after irradiation ([1]; 3 mL aqueous solution in petri dish, UV peak 222 nm, 3.8 mW/cm^2, 30 seconds, 8 cm from light source): Smell like lysine; Smell after application of amino acid solution ([2]; listed as proline): no odor was detected
Different | No smell | N[C@@H](CO)C(=O)O [Serine, serine] | Smell disappeared | Smell after application of amino acid solution ([2]; listed as serine): no odor was detected
Different | No smell | C[C@@H](O)[C@H](N)C(=O)O [Threonine, threonine] | – | –
Different | No smell | N[C@@H](Cc1ccc(O)cc1)C(=O)O [Tyrosine, tyrosine] | – | –
substantially the same | – | CC(C)[C@H](N)C(=O)O [Valine, valine] | Smell disappeared | Smell after application of amino acid solution ([2]; listed as valine): no odor was detected

— patent US11642548B2, “Sterilization method and sterilization apparatus” (Ushio Denki Kabushiki Kaisha, priority 2017, dated 2023)
